Experimental data taken from patent US20220079889A1, “USE OF CANNABANOIDS IN THE TREATMENT OF PROLIFERATIVE DIABETIC RETINOPATHY” (VERDANT PHARMACEUTICALS, LLC, priority 2020, published 2022).
Entries after “also recorded” stand apart in the source; their conditions may differ.

What was measured:
CNV lesions = experiment: Laser injury CNV model, CNV size in choroidal flat mounts; format: in vivo, Brown-Norway rats; conditions: rats
Description: For reverse transcription polymerase chain reaction (RT-PCR) detection and immunofluorescence staining of CB in the choroid, Lewis rats (8-10 weeks old, Charles River Laboratories, Inc., Wilmington, Mass.) were used. To generate CNV in the laser injury model, Brown-Norway rats (10-12 weeks old, Charles River Laboratories, Inc., Wilmington, Mass.) were used. Rats were housed in plastic cages in a climate controlled animal facility and were fed laboratory chow and water ad libitum. All animal experiments were conducted in accordance with the ARVO Statement for the Use of Animals in Ophthalmic and Vision Research.
(§1) Lewis rats were euthanized by overdose anesthesia and perfused with PBS (500 ml/kg body weight (BW)). Eyes were immediately enucleated and the retinal pigment epithelium (RPE)-choroid complex was obtained from the rat eyes and homogenized in extraction reagent (TRIzol Reagent; Invitrogen, Carlsbad, Calif.). […] PCR products were analyzed by electrophoresis in a 1.5% agarose gel and stained with ethidium bromide ([…]). The expected sizes of the amplified cDNA fragments of CB and GAPDH were 341 bp and 387 bp, respectively Band densities were quantified using NIH Image 1.41 software (available by ftp from zippy.nimh.nih.gov/or from the web site, rsb info.nih.gov/nih-image: developed by Wayne Rasband, National Institutes of Health, Bethesda, Md.). […]

[1] = tested on: ED-1-positive cells in the CNV lesions; experiment: Quantification of macrophage infiltration into CNV lesions; format: in vivo, Brown-Norway rats
Protocol: (§2) To block CB, a specific CBD, Compound 11 described above, was used (R-tech Ueno, Ltd., Tokyo, Japan). After laser injury, the inhibitor (0.3 mg/kg BW) was administered to the animals by daily i.p. injections. As a control, some animals received the same regimen for the vehicle solution alone.
At 1, 3, and 7 days after laser injury and treatment with either CBD or vehicle solution, animals were perfused with 200 ml of PBS/kg BW under deep anesthesia. Subsequently, eyes were enucleated and fixed overnight with 4% PFA, and 10 μm frozen sections of the posterior segment, including the center portion of CNV lesions (6 lesions per eye), were prepared and pre-blocked (PBS containing 10% goat serum, 0.5% gelatin, 3% BSA, and 0.2% Tween 20). […] The photographs of CNV lesions were taken, and the numbers of ED-1-positive cells were counted. To obtain a quantitative index of macrophage numbers in CNV lesions, an optical density plot of the selected area was generated by a histogram graphing tool in the Photoshop imageanalysis software (version 6.0: Adobe Systems, Mountain View, Calif.), as described in the literature (for example, Sakurai et al. (2003) IOVS 44: 3578-85). […]

[2] = tested on: vascular leakage from the CNV lesions; experiment: Laser injury CNV model, fluorescein angiography grading of leakage; format: in vivo, Brown-Norway rats; conditions: rats
Protocol: as §1, with “Calif.). As a control, the retinal tissues were separately obtained and processed. Total RNA was prepared according to the manufacturer's protocol, and equal amounts ([…]) of total RNA were reverse transcribed with a First-Strand cDNA synthesis kit (GE Healthcare, Buckinghamshire, UK) at 37° C. for 1 hour in a 15 μl reaction volume.” for “Calif.).”
Seven days after laser injury, vascular leakage from the CNV lesions was assessed using fluorescein angiography (FA), as described previously (Zambarakji et al. (2001) IOVS 42: 1553-60). […]

MCP-1 = experiment: ELISA of RPE-choroid complex after laser injury: MCP-1; format: in vivo, rat; conditions: laser-treated animals, 3 days after laser injury; 0.3 mg/kg BW daily i.p.
Protocol: as §2
The RPE-choroid complex was carefully isolated from eyes 3 days after photocoagulation and placed in 300 μl of lysis buffer supplemented with protease inhibitors and sonicated. The lysate was centrifuged at 15,000 rpm for 15 minutes at 4° C. and the levels of TNF-α, monocyte chemotactic protein (MCP)-1, and intercellular adhesion molecule (ICAM)-1 were determined with rat TNF-α (BI) bioscience), MCP-1 (BD bioscience) and ICAM-1 (R&D Systems, Minneapolis, Minn.) enzyme-linked immunosorbent assay (ELISA) kits according to the manufacturers' protocols. Total protein concentration was determined using a Bio-Rad Protein Assay Kit (Bio-Rad Laboratories Hercules, Calif.) and dilutions of bovine serum albumin (Bio-Rad Laboratories) as standards.

CC(=O)Nc1nc(CCc2ccc(NC(=N)NN)cc2)c(Cc2ccc(S(C)(=O)=O)cc2)s1 [Compound II]
effect on CNV / CNV size (in words) (CNV lesions): significantly decreased; also recorded: effectively suppresses CNV
reduction of number of accumulated macrophages ([1]; 3 days after laser injury, 0.3 mg/kg BW daily i.p., n=4, p<0.05): 41%
effect on accumulation of macrophages in the CNV lesions (in words) ([1]; laser injury model, rats): significantly decreased
effect on fluorescent angiographic leakage (in words) [2]: significantly decreased
protein level of MCP-1 in the RPE-choroid complex (MCP-1): 662 ± 52 pg/mg
